From PubChem BioAssay (NCI)
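Cultured in 96-well plates, cells were exposed to test compound for 48 hours across five concentrations. GI50 = concentration required for 50% inhibition of growth. Definition used: TGI = concentration required for complete inhibition of growth.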

Key:
Assay in all cases: growth of human tumour cells (NCI), 48 h
[1] = system: 786-0 renal
[2] = system: A498 renal
[3] = system: A549 NSCLC
[4] = system: ACHN renal
[5] = system: CAKI-1 renal
[6] = system: CCRF-CEM leukemia
[7] = system: DU-145 prostate
[8] = system: EKVX NSCLC
[9] = system: HCC-2998 colon
[10] = system: HCT-116 colon
[11] = system: HCT-15 colon
[12] = system: HL-60(TB) leukemia
[13] = system: HOP-62 NSCLC
[14] = system: HOP-92 NSCLC
[15] = system: HS 578T breast
[16] = system: IGROV1 ovarian
[17] = system: K-562 leukemia
[18] = system: KM12 colon
[19] = system: LOX IMVI melanoma
[20] = system: M14 melanoma
[21] = system: MALME-3M melanoma
[22] = system: MDA-MB-231 breast
[23] = system: MDA-MB-435
[24] = system: MDA-MB-468 breast
[25] = system: MOLT-4 leukemia
[26] = system: NCI-H226 lung
[27] = system: NCI-H23 lung
[28] = system: NCI-H460 lung
[29] = system: NCI-H522 lung
[30] = system: NCI/ADR-RES ovarian
[31] = system: OVCAR-3 ovarian
[32] = system: OVCAR-4 ovarian
[33] = system: OVCAR-5 ovarian
[34] = system: OVCAR-8 ovarian
[35] = system: PC-3 prostate
[36] = system: RPMI-8226 leukemia
[37] = system: RXF 393 renal
[38] = system: SF-268 CNS
[39] = system: SF-295 CNS
[40] = system: SF-539 CNS
[41] = system: SK-MEL-2 melanoma
[42] = system: SK-MEL-28 melanoma
[43] = system: SK-MEL-5 melanoma
[44] = system: SK-OV-3 ovarian
[45] = system: SN12C renal
[46] = system: SNB-19 CNS
[47] = system: SR leukemia
[48] = system: SW-620 colon
[49] = system: TK-10 renal
[50] = system: U251 CNS
[51] = system: UACC-257 melanoma
[52] = system: UACC-62 melanoma
[53] = system: UO-31 renal

`CN(C)CCn1c2ccccc2c2nc3ccc([N+](=O)[O-])cc3nc21` showed a GI50 [1] of 1.31 µM, a TGI [1] of 6.55 µM and a GI50 [2] of 1.74 µM. The TGI [2] was 4.56 µM, the GI50 [3] was 0.438 µM and the TGI [3] was 1.83 µM. For the same compound, the GI50 [4] was 0.322 µM, the TGI [4] was 1.1 µM and the GI50 [5] was 0.368 µM. It also gave a TGI [5] of 2.71 µM, a GI50 [6] of 0.667 µM and a TGI [6] of 4.37 µM. It also gave a GI50 [7] of 1.71 µM, a TGI [7] of 9.91 µM and a GI50 [8] of 1.6 µM. It also gave a TGI [8] of 5 µM, a GI50 [9] of 1.47 µM and a TGI [9] of 3.72 µM. It also gave a GI50 [10] of 0.752 µM, a TGI [10] of 5.94 µM and a GI50 [11] of 0.725 µM. The TGI [11] was 4.06 µM, the GI50 [12] was 0.256 µM and the TGI [12] was 0.698 µM. It also gave a GI50 [13] of 1.08 µM, a TGI [13] of 4.76 µM and a GI50 [14] of 0.197 µM. It also gave a TGI [14] of 2.29 µM, a GI50 [15] of 2.16 µM and a TGI [15] greater than 100 µM. It also gave a GI50 [16] of 1.07 µM, a TGI [16] of 9.46 µM and a GI50 [17] of 0.931 µM. It also gave a TGI [17] of 11.3 µM, a GI50 [18] of 1.53 µM and a TGI [18] of 9.15 µM. It also gave a GI50 [19] of 0.541 µM, a TGI [19] of 1.95 µM and a GI50 [20] of 1.71 µM. For the same compound, the TGI [20] was greater than 100 µM, the GI50 [21] was 0.709 µM and the TGI [21] was 3.41 µM. It also gave a GI50 [22] of 1.87 µM, a TGI [22] of 5.7 µM and a GI50 [23] of 2.3 µM. For the same compound, the TGI [23] was greater than 100 µM, the GI50 [24] was 0.514 µM and the TGI [24] was 2.27 µM. The GI50 [25] was 0.41 µM, the TGI [25] was 2.9 µM and the GI50 [26] was 1.27 µM. The TGI [26] was 3.26 µM, the GI50 [27] was 1.2 µM and the TGI [27] was 3.64 µM. For the same compound, the GI50 [28] was 0.395 µM, the TGI [28] was 2.19 µM and the GI50 [29] was 0.988 µM. It also gave a TGI [29] of 4.22 µM, a GI50 [30] of 1.28 µM and a TGI [30] of 11.9 µM. For the same compound, the GI50 [31] was 2.01 µM, the TGI [31] was 7.34 µM and the GI50 [32] was 2.76 µM. For the same compound, the TGI [32] was greater than 100 µM, the GI50 [33] was 2.31 µM and the TGI [33] was 6.51 µM. The GI50 [34] was 0.907 µM, the TGI [34] was 5.51 µM and the GI50 [35] was 1.14 µM. For the same compound, the TGI [35] was greater than 100 µM, the GI50 [36] was 1.23 µM and the TGI [36] was 4.3 µM. It also gave a GI50 [37] of 1.83 µM, a TGI [37] of 5.83 µM and a GI50 [38] of 1.75 µM. The TGI [38] was 13.2 µM, the GI50 [39] was 0.477 µM and the TGI [39] was 3.09 µM. For the same compound, the GI50 [40] was 0.645 µM, the TGI [40] was 3.85 µM and the GI50 [41] was 3.27 µM. For the same compound, the TGI [41] was 7.64 µM, the GI50 [42] was 2.54 µM and the TGI [42] was greater than 100 µM. For the same compound, the GI50 [43] was 0.666 µM, the TGI [43] was 2.05 µM and the GI50 [44] was 2.49 µM. The TGI [44] was 7.5 µM, the GI50 [45] was 0.813 µM and the TGI [45] was 4.62 µM. The GI50 [46] was 2.32 µM, the TGI [46] was 10.4 µM and the GI50 [47] was 0.322 µM. For the same compound, the TGI [47] was 1.69 µM, the GI50 [48] was 0.691 µM and the TGI [48] was greater than 100 µM. For the same compound, the GI50 [49] was 2.35 µM, the TGI [49] was 6.37 µM and the GI50 [50] was 0.772 µM. For the same compound, the TGI [50] was 3.96 µM, the GI50 [51] was 1.86 µM and the TGI [51] was 5.95 µM. For the same compound, the GI50 [52] was 0.928 µM, the TGI [52] was 2.9 µM and the GI50 [53] was 0.248 µM. The TGI [53] was 1.99 µM.
